Experimental data as given in PMC10523091, “Stereo/regio-selective access to substituted 3-hydroxy-oxindoles with anti-proliferative assessment and in silico validation” (RSC Advances, 2023).
Read-outs that look alike come from different tables or passages of the source.

Assays:
HCT116 = experiment: MTS cell viability assay, HCT116; type: cell-based; details: for SI HCT116: SI = (IC50 for normal cell line FHC)/(IC50 for HCT116)
Procedure: (§1) The newly synthesized compounds were subjected to assessment for their potential to inhibit the proliferation of various cancer cell lines including colorectal carcinoma (HCT116), ovarian cancer (OVCAR 10), and human metastatic melanoma (1205Lu), and non-cancerous fetal human cells (FHC). […] In order to ascertain whether compound 4j is selectively cytotoxic or anti-proliferative to cancer cells, it was tested for non-cancerous fetal human cells (FHC).
(§2) HCT116, OVCAR 10, 1205Lu, and FHC cell lines were procured from American Type Culture Collection (ATCC, Manassas, VA, USA). All the cells were grown based on the recommendations by ATCC at 37 °C in a humidified atmosphere with CO2. Stock solutions of compounds were made up and delivered to cells in DMSO.
(§3) The cell viability assay was performed as described earlier[27] HCT116, OVCAR 10, 1205Lu, and FHC adherent cell lines were seeded in 96-well plate at a density of 5 × 10^3 cells per well. Next day, the cells were treated with the respective compounds at different doses for 48 h in triplicates. At the end of the treatment duration, the media were removed and fresh media were added containing 20 μL of [3-(4,5-dimethylthiazol-2-yl)-5-(3-carboxymethoxyphenyl)-2-(4-sulfophenyl)-2H-tetrazolium] (MTS) reagent per well (Promega, WI, USA). The optical densities of the solubilized formazan crystals were read with a 96-well multi-scanner (Dynex Technologies, MRX Revelation; Chantilly, VA, USA) at 490 nm and 630 nm, and the normalized percent viability was calculated. The IC50 values were calculated using non-linear regression (curve fit).

FHC = experiment: MTS cell viability assay, non-cancerous FHC; type: cell-based; details: 48 h treatment, non-cancerous fetal human cells, read-out: IC50 (μM) ± SD FHC
Procedure: as §1, §2, §3

OVCAR 10 = experiment: MTS cell viability assay, OVCAR 10; type: cell-based; details: for SI OVCAR10: SI = (IC50 for normal cell line FHC)/(IC50 for OVCAR10)
Procedure: as §1, §2, §3

1205Lu = experiment: MTS cell viability assay, 1205Lu; type: cell-based, human; details: for SI 1205Lu: SI = (IC50 for normal cell line FHC)/(IC50 for 1205Lu)
Procedure: as §1, §2, §3

HCT-116 cells [1] = experiment: Caspase 3/7 7-AAD apoptosis assay; type: cell-based; details: 10 μM
Procedure: (§4) We further carried out apoptosis experiments utilizing the caspase-3/7 7-AAD and Annexin V/7-AAD assays to evaluate the mode of cell death.
(§5) The apoptosis assay using Muse Annexin V/7-AAD and Caspase 3/7 7-AAD assay kit (EMD Millipore, Darmstadt, Germany) was performed following manufacturer's protocol as described earlier.[28] Briefly, the cells were seeded in 6-well plate at a density of 1 × 10^5 cells per well. After 24 h incubation, the cells were treated with 10 μM of compound 4j. The cells were incubated for 24 and 48 h. At the end of the treatment period, the cells were harvested using enzyme free cell dissociation buffer. The samples were treated with the respective dyes based on the manufacturer's protocol. The samples were further analysed in Muse Cell Analyzer (Merck Millipore, Darmstadt, Germany).

HCT-116 cells [2] = experiment: Annexin V/7-AAD apoptosis assay; type: cell-based; details: 10 μM
Procedure: as §4, §5

[3] = MTS assay, 48 h treatment, ovarian cancer, read-out: IC50 (μM) ± SD OVCAR 10
[4] = Homo sapiens, HCT-116, MTS assay, 48 h treatment, colorectal carcinoma, read-out: IC50 (μM) ± SD HCT116
[5] = 1205Lu, MTS assay, 48 h treatment, human metastatic melanoma, read-out: IC50 (μM) ± SD 1205Lu
[6] = Homo sapiens, HCT-116, repeated in docking table, unit inferred, read-out: IC50 HCT116
[7] = repeated in docking table, unit inferred, read-out: IC50 OVCAR10
[8] = Homo sapiens, 1205Lu, repeated in docking table, unit inferred, read-out: IC50 1205Lu

IC50 (OVCAR 10; [3]) | IC50 (HCT116; [4]) | melting point | SMILES | IC50 (FHC; FHC) | IC50 (1205Lu; [5]) | other results
120 ± 15.4 µM | 104 ± 25 µM | – | O=C1N(Cc2ccccc2)c2ccccc2C1(O)CN1CCOCC1 (stereo not shown) [Compound 4a, 1-Benzyl-3-hydroxy-3-(morpholinomethyl)indolin-2-one] | 122 ± 13.2 µM | 111 ± 18.9 µM | –
69.2 ± 16.2 µM | 85.2 ± 15.3 µM | – | O=C1N(Cc2ccccc2)c2ccccc2C1(O)CN1CCCCC1 (stereo not shown) [Compound 4b, 1-Benzyl-3-hydroxy-3-(piperidin-1-ylmethyl)indolin-2-one] | 63.5 ± 22.2 µM | 65.3 ± 15.3 µM | –
61.2 ± 13.2 µM | 65.9 ± 16.7 µM | 169 to 171 °C | O=C1N(Cc2ccccc2)c2ccccc2C1(O)CN1CCCC1 (stereo not shown) [Compound 4c, 1-Benzyl-3-hydroxy-3-(pyrrolidin-1-ylmethyl)indolin-2-one] | 76.3 ± 14.5 µM | 78.2 ± 24 µM | –
87.9 ± 13 µM | 84.1 ± 19.4 µM | – | O=C1N(Cc2ccccc2)c2ccc(Br)cc2C1(O)CN1CCOCC1 (stereo not shown) [Compound 4d, 1-Benzyl-5-bromo-3-hydroxy-3-(morpholinomethyl)indolin-2-one] | 73.2 ± 19.6 µM | 81.2 ± 15.1 µM | –
93.1 ± 15.6 µM | 92.2 ± 17.2 µM | 189 to 191 °C | O=C1N(Cc2ccccc2)c2ccc(Br)cc2C1(O)CN1CCCCC1 (stereo not shown) [Compound 4e, 1-Benzyl-5-bromo-3-hydroxy-3-(piperidin-1-ylmethyl)indolin-2-one] | 88.3 ± 16.9 µM | 98 ± 13.2 µM | –
88.5 ± 18.9 µM | 85.3 ± 16 µM | 144 to 146 °C | O=C1N(Cc2ccccc2)c2ccc(Br)cc2C1(O)CN1CCCC1 (stereo not shown) [Compound 4f, 1-Benzyl-5-bromo-3-hydroxy-3-(pyrrolidin-1-ylmethyl)indolin-2-one] | 81.3 ± 15.6 µM | 85.6 ± 13.2 µM | –
112 ± 11.7 µM | 121 ± 17.1 µM | 191 to 193 °C | O=C1N(Cc2ccccc2)c2ccc(Cl)cc2C1(O)CN1CCOCC1 (stereo not shown) [Compound 4g, 1-Benzyl-5-chloro-3-hydroxy-3-(morpholinomethyl)indolin-2-one] | 121 ± 21.2 µM | 125 ± 19.8 µM | –
130 ± 17.2 µM | 117 ± 19.6 µM | – | O=C1N(Cc2ccccc2)c2ccc(Cl)cc2C1(O)CN1CCCCC1 (stereo not shown) [Compound 4h] | 106 ± 17.2 µM | 110 ± 18.4 µM | –
81.5 ± 12.5 µM | 93.4 ± 19.3 µM | 121 to 124 °C | O=C1N(Cc2ccccc2)c2ccc(Cl)cc2C1(O)CN1CCCC1 (stereo not shown) [Compound 4i, 1-Benzyl-5-chloro-3-hydroxy-3-(pyrrolidin-1-ylmethyl)indolin-2-one] | 96.5 ± 22.2 µM | 96.4 ± 18.8 µM | –
91.2 ± 18.7 µM | 110 ± 24.4 µM | 170 to 172 °C | O=C1N(Cc2ccccc2)c2c(Br)cc(Br)cc2C1(O)CN1CCCCC1 (stereo not shown) [Compound 4k, 1-Benzyl-5,7-dibromo-3-hydroxy-3-(piperidin-1ylmethyl)indolin-2-one] | 88.6 ± 20.3 µM | 89.9 ± 16.8 µM | IC50 (HCT116; [6]): 110 µM; IC50 (OVCAR 10; [7]): 91.2 µM; IC50 (1205Lu; [8]): 89.9 µM
94.3 ± 18 µM | 91.5 ± 26.9 µM | – | O=C1N(Cc2ccccc2)c2c(Br)cc(Br)cc2C1(O)CN1CCCC1 (stereo not shown) [Compound 4l] | 94.8 ± 15.3 µM | 91.6 ± 18.3 µM | –
92.3 ± 18.2 µM | 95.4 ± 9.66 µM | – | O=C1Nc2ccccc2C1(O)CN1CCOCC1 (stereo not shown) [Compound 4m, 3-Hydroxy-3-(morpholinomethyl)indolin-2-one] | 89.4 ± 14.6 µM | 99.7 ± 11.5 µM | –
112 ± 21.3 µM | 105 ± 23.3 µM | 154 to 156 °C | O=C1Nc2ccccc2C1(O)CN1CCCCC1 (stereo not shown) [Compound 4n, 3-Hydroxy-3-(piperidin-1-ylmethyl)indolin-2-one] | 96.8 ± 18.5 µM | 109 ± 24.7 µM | –
116 ± 11.8 µM | 102 ± 18.7 µM | – | O=C1Nc2ccccc2C1(O)CN1CCCC1 (stereo not shown) [Compound 4o, 3-Hydroxy-3-(pyrrolidin-1-ylmethyl)indolin-2-one] | 95.7 ± 13 µM | 130 ± 14 µM | –
22.4 ± 4.1 µM | 22.3 ± 1.7 µM | – | O=c1[nH]cc(F)c(=O)[nH]1 [Compound 5-FU, 5-fluorouracil, reference compound] | 21.3 ± 4.2 µM | 15.4 ± 2.9 µM | IC50 (HCT116; [6]): 22.3 µM; SI HCT116 (HCT116): 0.95; SI OVCAR10 (OVCAR 10): 0.95; IC50 (OVCAR 10; [7]): 22.4 µM; IC50 (1205Lu; [8]): 15.4 µM; SI 1205Lu (1205Lu): 1.38

SMILES | IC50 (OVCAR 10; [3]) | IC50 (HCT116; [4]) | melting point | IC50 (FHC; FHC) | IC50 (1205Lu; [5]) | other results
N.N.[Cl][Pt][Cl] [Cisplatin, cisplatin, reference compound] | 18.2 ± 2.5 µM | – | – | – | – | IC50 (HCT116; MTS assay, 48 h treatment, colorectal carcinoma, read-out: IC50 (μM) ± SD HCT116): 12.1 ± 2.5 µM; SI HCT116 (HCT116): 2.07; IC50 (FHC): 25.1 ± 3.2 µM; SI OVCAR10 (OVCAR 10): 1.37; IC50 (1205Lu; MTS assay, 48 h treatment, human metastatic melanoma, read-out: IC50 (μM) ± SD 1205Lu): 19 ± 1.5 µM; SI 1205Lu (1205Lu): 1.3
O=C1N(Cc2ccccc2)c2c(Br)cc(Br)cc2C1(O)CN1CCOCC1 (stereo not shown) [Compound 4j, 1-Benzyl-5,7-dibromo-3-hydroxy-3-(morpholinomethyl)indolin-2-one] | 8.56 ± 1.1 µM | 9.63 ± 1.3 µM | – | 20.6 ± 3.1 µM | 12.2 ± 1.7 µM | IC50 (HCT116; [6]): 9.63 µM; SI HCT116 (HCT116): 2.12; apoptotic cell population, Caspase 3/7 7-AAD (HCT-116 cells [1]; 24 h): 21.5%; apoptotic cell population, Caspase 3/7 7-AAD (HCT-116 cells [1]; 48 h): 57.9%; apoptotic cells, Annexin V/7-AAD (HCT-116 cells [2]; 24 h): 19.5%; apoptotic cells, Annexin V/7-AAD (HCT-116 cells [2]; 48 h): 46.15%; SI OVCAR10 (OVCAR 10): 2.40; IC50 (OVCAR 10; [7]): 8.56 µM; IC50 (1205Lu; [8]): 12.2 µM; SI 1205Lu (1205Lu): 1.68
